Assay results reported in paper PMC4700268 (Frontiers in Pharmacology, 2016).

Biological target: T1, hCNT2 (Homo sapiens, UniProt O43868)
T1 sequence (O43868 1-658): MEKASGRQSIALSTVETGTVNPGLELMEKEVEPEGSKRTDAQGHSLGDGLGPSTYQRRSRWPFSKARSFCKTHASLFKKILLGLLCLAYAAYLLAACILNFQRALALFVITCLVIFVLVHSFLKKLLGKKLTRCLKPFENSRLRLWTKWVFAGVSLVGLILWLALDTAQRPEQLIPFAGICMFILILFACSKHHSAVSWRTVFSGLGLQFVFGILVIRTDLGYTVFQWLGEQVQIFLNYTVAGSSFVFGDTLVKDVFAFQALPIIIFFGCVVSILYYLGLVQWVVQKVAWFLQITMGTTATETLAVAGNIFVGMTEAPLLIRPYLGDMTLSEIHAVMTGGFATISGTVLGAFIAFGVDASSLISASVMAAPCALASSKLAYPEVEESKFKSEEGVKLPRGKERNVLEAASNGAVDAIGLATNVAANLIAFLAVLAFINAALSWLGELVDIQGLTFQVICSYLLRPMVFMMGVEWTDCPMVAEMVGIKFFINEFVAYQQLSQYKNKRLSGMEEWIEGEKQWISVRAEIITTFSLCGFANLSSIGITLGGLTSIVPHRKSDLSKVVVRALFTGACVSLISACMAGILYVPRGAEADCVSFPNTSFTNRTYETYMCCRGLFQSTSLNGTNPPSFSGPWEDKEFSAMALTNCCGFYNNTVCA
Experiment: Inhibition of [3H]uridine uptake in hCNT2 transfected MDCK II cells
Format: in vitro ADME
Parameters: host or cells: MDCK II cells, transient transfection
Settings: 1 μM [3H]uridine, MDCK II cells transiently transfected with hCNT2, 2 min, 37°C; read-out: IC50, inhibition of hCNT2 mediated transport
Description: Inhibitory transport assays were carried out in 24-well plates as described previously ([Mandikova et al., 2013]). Transport assays in HeLa cells transiently transfected with the hOAT1 expression construct were performed 48 h after transfection. Transport assays in MDCK II cells transiently transfected with hOCT2, hCNT2 or hCNT3 were performed 24 h after transfection. The cultivation medium was removed and the cells were washed with transport solution and preincubated for 10 min at 37°C. The standard radiolabeled substrate or tested radioactive antiviral substance dissolved in transport solution was added to the cells and incubated for 2 min. [^3H]PAH (1 μM) was used as a prototypical substrate for OATs, [^3H]MPP^+ (1 μM) for OCTs and [^3H]uridine (1 μM) for CNTs. […] After the designated time period, the incubation was stopped by washing the cells twice with ice-cold solution containing 137 mM NaCl and 10 mM HEPES, pH 7.4. The cells were disintegrated with 0.1 mL of Triton X 0.5% in 100 mM NaOH for 1 h.
IC50 values were calculated using non-linear regression analysis using GraphPad Prism software (version 6).

IC50: 242 µM
Structure (SMILES): C=C1[C@H](CO)[C@@H](O)C[C@@H]1n1cnc2c(=O)[nH]c(N)nc21 [ETV, Entecavir]
